# Target: human H3 receptor (Homo sapiens, UniProt Q9Y5N1)
# Experiment: H3 Receptor Binding (Human) Method 2, [125I]-iodoproxyfan competitive radioligand binding
# Set-up: expressed in transfected cells
# Details: not given
# human H3 receptor, sequence (Q9Y5N1 whole entry): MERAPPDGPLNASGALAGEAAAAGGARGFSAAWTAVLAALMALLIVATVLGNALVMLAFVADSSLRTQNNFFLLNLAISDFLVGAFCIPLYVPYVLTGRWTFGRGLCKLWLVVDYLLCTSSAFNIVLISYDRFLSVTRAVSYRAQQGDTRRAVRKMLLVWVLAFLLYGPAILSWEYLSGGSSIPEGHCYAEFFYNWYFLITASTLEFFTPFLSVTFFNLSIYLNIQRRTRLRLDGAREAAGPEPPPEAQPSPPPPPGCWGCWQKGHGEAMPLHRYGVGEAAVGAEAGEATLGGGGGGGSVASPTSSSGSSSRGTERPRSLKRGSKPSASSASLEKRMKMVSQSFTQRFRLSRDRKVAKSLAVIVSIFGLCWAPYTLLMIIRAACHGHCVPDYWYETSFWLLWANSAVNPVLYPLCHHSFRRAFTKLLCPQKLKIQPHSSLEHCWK
row,Structure (SMILES),Ki [nM]
1,"O=C([C@H]1C[C@H](Oc2ccccn2)CN1)N1CCCN(C2CCC2)CC1 [Example 98, (2R,4S)-2-(4-Cyclobutyl-[1,4]diazepane-1-carbonyl)-4-(pyridin-2-yloxy)-pyrrolidine]",5
2,"CC(=O)N1C[C@@H](Oc2cccc(F)c2)C[C@H]1C(=O)N1CCCN(C2CCC2)CC1 [Example 115, (2S,4S)-1-[2-(4-Cyclobutyl-[1,4]diazepane-1-carbonyl)-4-(3-fluoro-phenoxy)-pyrrolidin-1-yl]-ethanone]",21
3,"CC(=O)N1C[C@H](Oc2cccc(F)c2)C[C@H]1C(=O)N1CCCN(C2CCC2)CC1 [Example 129, (2S,4R)-1-[2-(4-Cyclobutyl-[1,4]diazepane-1-carbonyl)-4-(3-fluoro-phenoxy)-pyrrolidin-1-yl]-ethanone]",379
4,CC(=O)N1C[C@H](Oc2cccc(F)c2)C[C@@H]1C(=O)N1CCCN(C2CCC2)CC1 [Example 130],569

# Same assay, conditions: Method 2; SK-N-MC cell membranes; [125I]-iodoproxyfan 1 nM; apparent Ki; free base or hydrochloride salt; average of results; read-out: Human H3 Ki
row,Structure (SMILES),Ki [nM]
1,"CC(C)N1C[C@@H](Oc2ccc(F)cc2)C[C@@H]1C(=O)N1CCCN(C2CCC2)CC1 [Example 112, (2R,4S)-1-Isopropyl-1-cyclobutyl-2-(4-cyclobutyl-[1,4]diazepane-1-carbonyl)-4-(4-fluoro-phenoxy)-pyrrolidine]",12
2,"CCOC(=O)N1C[C@@H](Oc2cccc(F)c2)C[C@@H]1C(=O)N1CCCN(C2CCC2)CC1 [Example 127, (2R,4S)-2-(4-Cyclobutyl-[1,4]diazepane-1-carbonyl)-4-(3-fluoro-phenoxy) pyrrolidine-1-carboxylic acid ethyl ester]",16
3,"O=C([C@@H]1C[C@H](Oc2ccc(F)cc2)CN1C1CC1)N1CCCN(C2CCC2)CC1 [Example 141, (2S,4S)-2-(4-Cyclobutyl-[1,4]diazepan-1-yl)-[1-cyclopropyl-4-(4-fluoro-phenoxy)-pyrrolidin-2-yl]-methanone]",55

# Same assay, conditions: read-out: Human H3 Ki
row,Structure (SMILES),Ki [nM]
1,"CC(C)(C)OC(=O)N1C[C@H](Oc2cccc(F)c2)C[C@@H]1C(=O)N1CCCN(C2CCC2)CC1 [Example 55, (2R,4R)-2-(4-Cyclobutyl-[1,4]diazepane-1-carbonyl)-4-(3-fluoro-phenoxy)-pyrrolidine-1-carboxylic acid tert-butyl ester]",57
2,"CC(C)(C)OC(=O)N1C[C@H](Oc2ccc(F)cc2)C[C@@H]1C(=O)N1CCCN(C2CCC2)CC1 [Example 56, (2R,4R)-2-(4-Cyclobutyl-[1,4]diazepane-1-carbonyl)-4-(4-fluoro-phenoxy)-pyrrolidine-1-carboxylic acid tert-butyl ester]",49
3,"CC(C)(C)OC(=O)N1C[C@H](Oc2ccc(Cl)cc2)C[C@@H]1C(=O)N1CCCN(C2CCC2)CC1 [Example 57, (2R,4R)-4-(4-Chloro-phenoxy)-2-(4-cyclobutyl-[1,4]diazepane-1-carbonyl)-pyrrolidine-1-carboxylic acid tert-butyl ester]",93
4,"CC(C)(C)OC(=O)N1C[C@H](Oc2ccccc2)C[C@@H]1C(=O)N1CCCN(C2CCC2)CC1 [Example 58, (2R,4R)-2-(4-Cyclobutyl-[1,4]diazepane-1-carbonyl)-4-phenoxy-pyrrolidine-1-carboxylic acid tert-butyl ester]",211
5,"CC(C)(C)OC(=O)N1C[C@H](Oc2ccc(C#N)cc2)C[C@@H]1C(=O)N1CCCN(C2CCC2)CC1 [Example 60, (2R,4R)-4-(4-Cyano-phenoxy)-2-(4-cyclobutyl-[1,4]diazepane-1-carbonyl)-pyrrolidine-1-carboxylic acid tert-butyl ester]",160
6,"CC(C)(C)OC(=O)N1C[C@@H](Sc2ccc(F)cc2)C[C@@H]1C(=O)N1CCCN(C2CCC2)CC1 [Example 61, (2R,4S)-2-(4-Cyclobutyl-[1,4]diazepane-1-carbonyl)-4-(4-fluoro-phenylsulfanyl)-pyrrolidine-1-carboxylic acid tert-butyl ester]",17
7,"Cc1cccc(O[C@@H]2CN[C@@H](C(=O)N3CCCN(C4CCC4)CC3)C2)c1 [Example 74, (2R,4S)-4-(4-m-Tolyloxy)-2-(4-cyclobutyl-[1,4]diazepane-1-carbonyl)-pyrrolidine]",5
8,"O=C([C@H]1C[C@H](Oc2ccc(C(F)(F)F)cc2)CN1)N1CCCN(C2CCC2)CC1 [Example 75, (2R,4S)-4-(4-Trifluoromethyl-phenoxy)-2-(4-cyclobutyl-[1,4]diazepane-1-carbonyl)-pyrrolidine]",4
9,"Cc1ccc(O[C@@H]2CN[C@@H](C(=O)N3CCCN(C4CCC4)CC3)C2)cc1 [Example 76, (2R,4S)-4-(4-p-Tolyloxy)-2-(4-cyclobutyl-[1,4]diazepane-1-carbonyl)-pyrrolidine]",5
10,"Cc1ccccc1O[C@@H]1CN[C@@H](C(=O)N2CCCN(C3CCC3)CC2)C1 [Example 77, (2R,4S)-4-(4-o-Tolyloxy)-2-(4-cyclobutyl-[1,4]diazepane-1-carbonyl)-pyrrolidine]",3
11,"O=C([C@H]1C[C@H](Oc2ccc(F)cc2)CN1)N1CCCN(C2CC2)CC1 [Example 78, (2R,4S)-2-(4-Cyclopropyl-[1,4]diazepane-1-carbonyl)-4-(4-fluoro-phenoxy)-pyrrolidine]",20
12,"N#Cc1ccc(O[C@@H]2CN[C@@H](C(=O)N3CCCN(C4CC4)CC3)C2)cc1 [Example 79, (2R,4S)-4-(4-Cyano-phenoxy)-2-(4-cyclopropyl-[1,4]diazepane-1-carbonyl)-pyrrolidine]",12
13,"O=C([C@H]1C[C@H](Oc2ccc(F)cc2)CN1)N1CCN(C2CCCC2)CC1 [Example 80, (2R,4S)-2-(4-Cyclopentyl-piperazine-1-carbonyl)-4-(4-fluoro-phenoxy)-pyrrolidine]",40
14,"N#Cc1ccc(O[C@@H]2CN[C@@H](C(=O)N3CCN(C4CCCC4)CC3)C2)cc1 [Example 81, (2R,4S)-4-(4-Cyano-phenoxy)-2-(4-cyclopentyl-piperazine-1-carbonyl)-pyrrolidine]",23
15,CN(C)[C@H]1CCN(C(=O)[C@H]2C[C@H](Oc3cccc(F)c3)CN2)C1 [Example 85],1300
16,"Cc1cnc(F)cc1O[C@@H]1CN[C@@H](C(=O)N2CCCN(C3CCC3)CC2)C1 [Example 99, (2R,4S)-2-(4-Cyclobutyl-[1,4]diazepane-1-carbonyl)-4-(2-fluoro-5-methyl-pyridin-4-yloxy)-pyrrolidine]",2
17,"Cc1cnc(O[C@@H]2CN[C@@H](C(=O)N3CCCN(C4CCC4)CC3)C2)cc1I [Example 100, (2R,4S)-2-(4-Cyclobutyl-[1,4]diazepane-1-carbonyl)-4-(4-iodo-5-methyl-pyridin-2-yloxy)-pyrrolidine]",2
18,"O=C([C@H]1C[C@H](Oc2cccnc2)CN1)N1CCCN(C2CCC2)CC1 [Example 101, (2R,4S)-2-(4-Cyclobutyl-[1,4]diazepane-1-carbonyl)-4-(Pyridin-3-yloxy)-pyrrolidine]",3
19,"CC(C)N1C[C@@H](Oc2ccc(F)cc2)C[C@H]1C(=O)N1CCCN(C2CCC2)CC1 [Example 108, (2S,4S)-(4-Cyclobutyl-[1,4]diazepan-1-yl)-[4-(4-fluoro-phenoxy)-1-isopropyl-pyrrolidin-2-yl]-methanone]",594
20,"CCN1C[C@@H](Oc2ccc(F)cc2)C[C@H]1C(=O)N1CCCN(C2CCC2)CC1 [Example 109, (2S,4S)-(4-Cyclobutyl-[1,4]diazepan-1-yl)-[1-ethyl-4-(4-fluoro-phenoxy)-pyrrolidin-2-yl]-methanone]",55
21,"O=C([C@H]1C[C@H](Oc2ccc(F)cc2)CN1C1CCC1)N1CCCN(C2CCC2)CC1 [Example 111, (2R,4S)-1-Cyclobutyl-2-(4-cyclobutyl-[1,4]diazepane-1-carbonyl)-4-(4-fluoro-phenoxy)-pyrrolidine]",17
22,"O=C([C@H]1C[C@H](Oc2ccc(F)cc2)CN1CC1CC1)N1CCCN(C2CCC2)CC1 [Example 113, (2R,4S)-1-Cyclopropylmethyl-2-(4-cyclobutyl-[1,4]diazepane-1-carbonyl)-4-(4-fluoro-phenoxy)-pyrrolidine]",7
23,"CC(C)C(=O)N1C[C@@H](Oc2cccc(F)c2)C[C@@H]1C(=O)N1CCCN(C2CCC2)CC1 [Example 123, (2R,4S)-1-[2-(4-Cyclobutyl-[1,4]diazepane-1-carbonyl)-4-(3-fluoro-phenoxy)-pyrrolidin-1-yl]-2-methyl-propan-1-one]",18
24,"CCC(=O)N1C[C@@H](Oc2cccc(F)c2)C[C@@H]1C(=O)N1CCCN(C2CCC2)CC1 [Example 125, (2R,4S)-1-[2-(4-Cyclobutyl-[1,4]diazepane-1-carbonyl)-4-(3-fluoro-phenoxy)-pyrrolidin-1-yl]-propan-1-one]",3
25,"CC(=O)N1C[C@@H](Oc2ccccn2)C[C@@H]1C(=O)N1CCCN(C2CCC2)CC1 [Example 132, (2R,4S)-1-[2-(4-Cyclobutyl-[1,4]diazepane-1-carbonyl)-4-(Pyridin-2-yloxy)-pyrrolidin-1-yl]-ethanone]",3
26,"CC(=O)N1C[C@@H](Oc2cccnc2)C[C@@H]1C(=O)N1CCCN(C2CCC2)CC1 [Example 133, (2R,4S)-1-[2-(4-Cyclobutyl-[1,4]diazepane-1-carbonyl)-4-(Pyridin-3-yloxy)-pyrrolidin-1-yl]-ethanone]",3
27,"CC(=O)N1C[C@@H](Oc2cccs2)C[C@@H]1C(=O)N1CCCN(C2CCC2)CC1 [Example 135, (2R,4S)-1-[2-(4-Cyclobutyl-[1,4]diazepane-1-carbonyl)-4-(thiophen-2-yloxy)-pyrrolidin-1-yl]-ethanone]",3
28,"CC(=O)N1C[C@@H](Oc2ccc3c(c2)OCCO3)C[C@@H]1C(=O)N1CCCN(C2CCC2)CC1 [Example 136, (2R,4S)-1-[2-(4-Cyclobutyl-[1,4]diazepane-1-carbonyl)-4-(2,3-dihydro-benzo[1,4]dioxin-6-yloxy)-pyrrolidin-1-yl]-ethanone]",2
29,"CS(=O)(=O)N1C[C@@H](Oc2ccc(F)cc2)C[C@@H]1C(=O)N1CCCN(C2CCC2)CC1 [Example 140, (2R,4S)-(4-Cyclobutyl-[1,4]diazepan-1-yl)-[4-(4-fluoro-phenoxy)-1-methanesulfonyl-pyrrolidin-2-yl]-methanone]",1

# Source: US8236792B2, “Substituted pyrrolidine amides as modulators of the histamine H3 receptor” (Janssen Pharmaceutica NV, priority 2008, dated 2012)
